Experimental data as given in ChEMBL document CHEMBL5233273, “An overview of hydroxypyranone and hydroxypyridinone as privileged scaffolds for novel drug discovery” (Eur J Med Chem, 2021).
In brackets after ≈: the same amount, converted by molar mass. Each block holds one molecule with its values, some of them ahead of it.

Experiments:
Tyrosinase [1] = target: T1, Tyrosinase (Agaricus bisporus, UniProt O42713); test: Inhibition of mushroom tyrosinase
T1 sequence (O42713 whole entry): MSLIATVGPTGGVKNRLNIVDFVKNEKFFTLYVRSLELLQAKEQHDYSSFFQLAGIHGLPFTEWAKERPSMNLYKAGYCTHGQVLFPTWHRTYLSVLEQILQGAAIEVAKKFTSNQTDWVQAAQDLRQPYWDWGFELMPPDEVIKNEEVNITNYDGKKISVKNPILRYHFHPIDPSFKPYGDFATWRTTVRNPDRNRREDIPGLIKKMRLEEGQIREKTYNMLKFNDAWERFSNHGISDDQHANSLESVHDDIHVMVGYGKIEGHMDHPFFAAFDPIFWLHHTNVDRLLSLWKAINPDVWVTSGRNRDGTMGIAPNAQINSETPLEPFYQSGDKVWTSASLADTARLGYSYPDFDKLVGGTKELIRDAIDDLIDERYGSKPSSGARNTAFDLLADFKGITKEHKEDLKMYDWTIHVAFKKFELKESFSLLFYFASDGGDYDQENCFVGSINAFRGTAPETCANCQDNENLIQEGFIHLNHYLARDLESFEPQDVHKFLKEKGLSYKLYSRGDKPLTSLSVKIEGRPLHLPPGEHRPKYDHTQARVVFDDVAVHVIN

[2] = system: Mycolicibacterium smegmatis; test: Antimycobacterial activity against Mycobacterium smegmatis; type: functional
RAW264.7 = test: Antiinflammatory activity in mouse RAW264.7 assessed as reduction in LPS-induced PGE2 production; type: functional, cell-based
Staphylococcus aureus [3] = test: Antibacterial activity against Staphylococcus aureus assessed as zone of inhibition; type: functional
Candida albicans = test: Antifungal activity against Candida albicans ATCC 90028; type: functional
[4] = target: T2, Tyrosinase (Agaricus bisporus) (UniProt O42713); test: Potency index, ratio of kojic acid IC50 to test compound IC50 for inhibition of mushroom tyrosinase
T2 sequence (whole entry): T1 sequence (O42713 whole entry)

Tyrosinase [5] = target: T1, Tyrosinase; test: Inhibition of mushroom tyrosinase monophenolase activity
Tyrosinase [6] = target: T1, Tyrosinase; test: Inhibition of mushroom tyrosinase diphenolase activity
Histamine H3 receptor = Histamine H3 receptor (Homo sapiens, UniProt Q9Y5N1); test: Binding affinity to human H3R expressed in HEK293 cells membrane; type: cell membranes
Histamine H3 receptor, sequence (Q9Y5N1 whole entry): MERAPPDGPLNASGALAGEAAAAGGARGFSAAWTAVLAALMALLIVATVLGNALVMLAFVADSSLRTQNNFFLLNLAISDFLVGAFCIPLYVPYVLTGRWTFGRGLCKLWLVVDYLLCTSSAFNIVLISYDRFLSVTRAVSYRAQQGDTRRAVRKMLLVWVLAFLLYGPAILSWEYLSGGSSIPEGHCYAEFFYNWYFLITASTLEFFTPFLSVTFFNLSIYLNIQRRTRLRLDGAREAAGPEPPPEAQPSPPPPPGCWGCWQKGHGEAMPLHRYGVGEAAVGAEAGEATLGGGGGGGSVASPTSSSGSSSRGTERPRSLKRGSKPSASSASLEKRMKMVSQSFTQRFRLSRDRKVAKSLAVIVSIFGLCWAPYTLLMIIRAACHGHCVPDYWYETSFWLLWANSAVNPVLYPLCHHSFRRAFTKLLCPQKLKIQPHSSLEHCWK

Staphylococcus aureus [7] = test: Antibacterial activity against Staphylococcus aureus; type: functional
Escherichia coli = test: Antibacterial activity against Escherichia coli; type: functional
Bacillus subtilis = test: Antibacterial activity against Bacillus subtilis; type: functional
Pseudomonas aeruginosa = test: Antibacterial activity against Pseudomonas aeruginosa; type: functional
[8] = Inhibition of TBHP induced lipid peroxidation in human HaCaT cells; type: functional
A549 = test: Cytotoxicity against human A549 cells; type: functional, cell-based
DU-145 = test: Cytotoxicity against human DU-145 cells; type: functional, cell-based
HeLa = test: Cytotoxicity against human HeLa cells; type: functional, cell-based
[9] = Antioxidant activity assessed as DPPH radical scavenging activity; type: functional
DNA gyrase = DNA gyrase (Escherichia coli, UniProt P0AES4+P0AES6); test: Inhibition of Escherichia coli DNA gyrase; type: protein-complex assay
HepG2 = test: Cytotoxicity against human HepG2 cells; type: functional, cell-based

Compound: Cc1cc(=O)c(O)c(CN2C(C)CCCC2C)o1 (configuration not stated)
- MIC [2]: 8 µg/mL (≈ 31.8 µM)

Compound: Cc1cc(=O)c(O)c(CN2CCC(CO)CC2)o1
- MIC [2]: 8 µg/mL (≈ 31.6 µM)

Compound: O=C(/C=C/c1ccc(C(=O)OCc2cc(=O)c(O)co2)cc1)c1ccc(Br)cc1
- inhibition zone (IZ) (Staphylococcus aureus [3]): 8 mm

Compound: Cc1cc(=O)c(O)c(CN2CCC(N3CCOCC3)CC2)o1
- MIC [2]: 8 µg/mL (≈ 25.9 µM)

Compound: CCC1CCC(C)N(Cc2oc(C)cc(=O)c2O)C1 (configuration not stated)
- MIC [2]: 8 µg/mL (≈ 30.1 µM)

Compound: Cc1cc(=O)c(O)c(CN2CCC(c3ccccn3)CC2)o1
- MIC [2]: 8 µg/mL (≈ 26.6 µM)

Compound: CCCCCCCCn1cc(O)c(=O)cc1/C=N/OCC
- IC50 (Tyrosinase [5]): 1.6 µM
- IC50 (Tyrosinase [6]): 7.99 µM

Compound: CCCC1CCCCN1Cc1oc(C)cc(=O)c1O (configuration not stated)
- MIC [2]: 8 µg/mL (≈ 30.1 µM)

Compound: CCCC(=O)NC(CCCNC(=O)c1c(O)c(=O)ccn1CCO)(CCCNC(=O)c1c(O)c(=O)ccn1CCO)CCCNC(=O)c1c(O)c(=O)ccn1CCO
- MIC (Staphylococcus aureus [7]): 8 µg/mL (≈ 9.81 µM)
- MIC (Escherichia coli): 8 µg/mL (≈ 9.81 µM)
- MIC (Bacillus subtilis): 8 µg/mL (≈ 9.81 µM)
- MIC (Pseudomonas aeruginosa): 16 µg/mL (≈ 19.6 µM)

Compound: Cc1cc(=O)c(O)c(CN2CCCCC2)o1
- MIC [2]: 8 µg/mL (≈ 35.8 µM)

Compound: CC(C)(C)[Si](C)(C)OCc1cc(=O)c(O)c(C(C[N+](=O)[O-])c2cccc(Cl)c2)o1 (configuration not stated)
- IC50 (A549): 9 µM
- IC50 (DU-145): 14 µM
- IC50 (HeLa): 10 µM

Compound: CCCC(=O)NC(CCCNC(=O)c1c(O)c(=O)ccn1C)(CCCNC(=O)c1c(O)c(=O)ccn1C)CCCNC(=O)c1c(O)c(=O)ccn1C
- MIC (Staphylococcus aureus [7]): 8 µg/mL (≈ 11 µM)
- MIC (Escherichia coli): 8 µg/mL (≈ 11 µM)
- MIC (Bacillus subtilis): 8 µg/mL (≈ 11 µM)
- MIC (Pseudomonas aeruginosa): 16 µg/mL (≈ 22 µM)

Compound: CCOC(=O)CC(c1ccccc1)c1oc(CO)cc(=O)c1O (configuration not stated)
- Activity [9]: 58.2%

Compound: Cc1cc(=O)c(O)c(CN2CCCC(CO)C2)o1 (configuration not stated)
- MIC [2]: 8 µg/mL (≈ 31.6 µM)

Compound: O=C(/C=C/c1ccc(C(=O)OCc2cc(=O)c(O)co2)cc1)c1ccccc1
- inhibition zone (IZ) (Staphylococcus aureus [3]): 8 mm

Compound: Cc1[nH]c(C(=O)N[C@H]2CCc3nc(NC(=O)[C@@H](NC(=O)c4cc(=O)c(O)c[nH]4)C(C)C)sc3C2)c(Cl)c1Cl
- IC50 (DNA gyrase): 0.64 µM

Compound: O=c1cc(CN2CCCC2)oc(CN2CCN(Cc3ccc(Br)c(F)c3)CC2)c1O
- IC50 (HepG2): 32.7 µM

Compound: O=c1cc(CN2CCCCC2)oc(CN2CCN(Cc3ccc(Br)c(F)c3)CC2)c1O
- IC50 (HepG2): 37.2 µM

Continued, in another order:

- IC50 (Tyrosinase [1]): 1.52 µM
Compound: O=C(/C=C/c1ccc2c(c1)OCCO2)OCc1cc(=O)c(O)co1

- IC50 (Tyrosinase [1]): 1.52 µM
Compound: O=C(OCc1cc(=O)c(O)co1)c1ccc2c(c1)OCCO2

- IC50 (Tyrosinase [1]): 1.52 µM
Compound: O=C(OCc1cc(=O)c(O)co1)c1ccc2c(c1)OCO2

- IC50 (Tyrosinase [1]): 0.06 µM
Compound: O=c1cc(Cn2cc(COc3ccccc3)nn2)occ1O

- IC50 (RAW264.7): 3.2 µM
Compound: O=c1cc(/C=C/c2ccc(O)cc2)occ1O

- MIC (Candida albicans): 64 µg/mL (≈ 201 µM)
Compound: Cc1cc(=O)c(O)c(CN2CCN(c3ccc(F)cc3)CC2)o1

- IC50 (Tyrosinase [1]): 0.54 µM
Compound: O=c1cc(CSc2ccc(O)cc2)occ1O

- MIC [2]: 8 µg/mL (≈ 26.7 µM)
Compound: Cc1cc(=O)c(O)c(CN2CCC(c3ccccc3)CC2)o1

- IC50 (Tyrosinase [1]): 0.06 µM
- Ratio IC50 [4]: 155
Compound: O=c1cc(Cn2cc(COc3ccc4ccccc4c3)nn2)occ1O

- IC50 (Tyrosinase [1]): 0.06 µM
Compound: O=c1cc(Cn2cc(COc3ccc([N+](=O)[O-])cc3)nn2)occ1O

- IC50 (Tyrosinase [1]): 0.06 µM
Compound: O=c1cc(Cn2cc(COc3ccc(F)cc3)nn2)occ1O

- MIC (Candida albicans): 64 µg/mL (≈ 201 µM)
Compound: Cc1cc(=O)c(O)c(CN2CCN(c3ccccc3F)CC2)o1

- Ki (Histamine H3 receptor): 0.01 µM
Compound: O=c1cc(CN(Cc2ccc(OCCCN3CCCCC3)cc2)Cc2cc(=O)c(O)co2)occ1O

- IC50 (Tyrosinase [1]): 0.06 µM
Compound: COc1cc(OC)cc(OCc2cn(Cc3cc(=O)c(O)co3)nn2)c1

- MIC (Candida albicans): 64 µg/mL (≈ 212 µM)
Compound: Cc1cc(=O)c(O)c(CN2CCN(c3ccccn3)CC2)o1

- MIC (Candida albicans): 64 µg/mL (≈ 185 µM)
Compound: Cc1cc(=O)c(O)c(CN2CCN(c3ccc([N+](=O)[O-])cc3)CC2)o1

- IC50 (Tyrosinase [1]): 0.06 µM
Compound: O=c1cc(Cn2cc(COc3cccc(F)c3)nn2)occ1O

- IC50 (Tyrosinase [1]): 1.4 µM
Compound: O=C(/C=C/c1ccc2c(c1)OCO2)OCc1cc(=O)c(O)co1
- inhibition (INH) [8]: 47%

- IC50 (Tyrosinase [5]): 12.6 µM
- IC50 (Tyrosinase [6]): 4 µM
Compound: CCCCCCCCn1cc(O)c(=O)cc1COC(=O)[C@@H](N)Cc1ccccc1

- MIC (Candida albicans): 64 µg/mL (≈ 174 µM)
Compound: Cc1cc(=O)c(O)c(CN2CCN(c3cccc(C(F)(F)F)c3)CC2)o1

- Ki (Histamine H3 receptor): 0.0316 µM
Compound: O=c1cc(CNCc2ccc(OCCCN3CCCCC3)cc2)occ1O

- MIC [2]: 8 µg/mL (≈ 27.1 µM)
Compound: CCOC(=O)C1CCN(Cc2oc(C)cc(=O)c2O)CC1

- MIC (Candida albicans): 64 µg/mL (≈ 194 µM)
Compound: COc1cccc(N2CCN(Cc3oc(C)cc(=O)c3O)CC2)c1

- IC50 (DNA gyrase): 0.18 µM
Compound: O=C(N[C@H]1CCc2nc(NCc3cc(=O)c(O)co3)sc2C1)c1cc(Br)c(Br)[nH]1

- MIC (Candida albicans): 64 µg/mL (≈ 187 µM)
Compound: CC(=O)c1ccc(N2CCN(Cc3oc(C)cc(=O)c3O)CC2)cc1

- IC50 (Tyrosinase [1]): 86.2 µM
- Ratio IC50 [4]: 5
Compound: O=c1cc(CO)oc(CN2CCN(Cc3ccc(Cl)c(Cl)c3)CC2)c1O
